Legend:
Wolbachia [1] = experiment: Antibacterial activity against Wolbachia infected in insect cells; type: functional, organism-based
Wolbachia [2] = experiment: Potency index, ratio IC50 for doxycycline to IC50 for compound for antibacterial activity against Wolbachia infected in insect cells; type: functional
Wolbachia [3] = experiment: Potency index, ratio IC50 for TylA to IC50 for compound for antibacterial activity against Wolbachia infected in insect cells; type: functional

## CC[C@H]1OC(=O)C[C@@H](O)[C@H](C)[C@@H](O[C@@H]2O[C@H](C)[C@@H](O[C@H]3C[C@@](C)(O)[C@@H](OCc4ccc(F)cc4)[C@H](C)O3)[C@H](N(C)C)[C@H]2O)[C@@H](CC=O)C[C@@H](C)C(=O)/C=C/C(C)=C/[C@@H]1CO[C@@H]1O[C@H](C)[C@@H](O)[C@@H](OC)[C@H]1OC [FLUBENTYLOSIN]
Wolbachia [1]
  IC50: 0.02 nM
Wolbachia [2]
  Ratio IC50: >1000
Wolbachia [3]
  Ratio IC50: >1000

From ChEMBL document CHEMBL4616690, “Assembling Pharma Resources to Tackle Diseases of Underserved Populations” (ACS Med Chem Lett, 2020)
